Data as given in ChEMBL document CHEMBL1154389, “Discovery of pyrimidine benzimidazoles as Src-family selective Lck inhibitors. Part II” (Bioorg Med Chem Lett, 2009).

What was measured:
[1] = biological target: Tyrosine-protein kinase Lck (Homo sapiens, UniProt P06239); assay: Inhibition of LCK
[2] = biological target: Tyrosine-protein kinase HCK (Homo sapiens, UniProt P08631); assay: Inhibition of HCK
[3] = biological target: Proto-oncogene tyrosine-protein kinase Src (Homo sapiens, UniProt P12931); assay: Inhibition of SRC
Sequence of Proto-oncogene tyrosine-protein kinase Src (P12931 2-536 limits assumed): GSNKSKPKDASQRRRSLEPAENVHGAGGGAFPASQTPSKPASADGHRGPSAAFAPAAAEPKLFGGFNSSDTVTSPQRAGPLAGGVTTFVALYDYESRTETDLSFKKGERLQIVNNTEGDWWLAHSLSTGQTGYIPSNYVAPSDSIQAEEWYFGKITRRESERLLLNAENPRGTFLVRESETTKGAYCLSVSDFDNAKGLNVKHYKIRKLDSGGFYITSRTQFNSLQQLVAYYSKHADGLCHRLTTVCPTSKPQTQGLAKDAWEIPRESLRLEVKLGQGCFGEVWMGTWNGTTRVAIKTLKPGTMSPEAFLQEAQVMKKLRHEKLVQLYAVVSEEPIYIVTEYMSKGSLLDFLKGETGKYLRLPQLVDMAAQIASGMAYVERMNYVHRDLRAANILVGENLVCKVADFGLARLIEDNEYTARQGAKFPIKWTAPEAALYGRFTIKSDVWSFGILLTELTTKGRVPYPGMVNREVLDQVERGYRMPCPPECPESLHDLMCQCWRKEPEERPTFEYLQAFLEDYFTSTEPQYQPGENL

[4] = (§1) AUC in mouse at 20 mg/kg, po; format: ADME, organism-based, Plasma; design: dose 20 mg/kg, route oral; settings: mouse, plasma, po, 20 mg/kg
[5] = Metabolic stability in mouse assessed as extraction ratio at 20 mg/kg, po; format: ADME, organism-based; design: dose 20 mg/kg, route oral; settings: in vivo
Mus musculus = assay: as §1; format: ADME, organism-based, Plasma; design: dose 20 mg/kg, route oral
BaF3 = assay: Cytotoxicity against mouse BAF3 cells; format: functional, cell-based

Sequence of Tyrosine-protein kinase Lck (P06239 whole entry): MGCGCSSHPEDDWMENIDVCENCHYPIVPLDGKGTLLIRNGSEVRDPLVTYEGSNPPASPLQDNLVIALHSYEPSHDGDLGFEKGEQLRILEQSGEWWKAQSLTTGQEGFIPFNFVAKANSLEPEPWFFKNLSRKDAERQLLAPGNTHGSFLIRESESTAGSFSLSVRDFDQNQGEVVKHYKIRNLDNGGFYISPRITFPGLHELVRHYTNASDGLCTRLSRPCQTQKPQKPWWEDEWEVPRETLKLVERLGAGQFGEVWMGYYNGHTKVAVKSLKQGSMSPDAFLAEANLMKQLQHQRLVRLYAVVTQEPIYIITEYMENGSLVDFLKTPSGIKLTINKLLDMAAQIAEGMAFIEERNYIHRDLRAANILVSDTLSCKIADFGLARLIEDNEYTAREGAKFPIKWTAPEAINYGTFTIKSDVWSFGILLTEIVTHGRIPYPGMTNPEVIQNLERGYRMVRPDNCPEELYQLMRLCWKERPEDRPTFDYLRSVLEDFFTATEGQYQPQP
Sequence of Tyrosine-protein kinase HCK (P08631 whole entry): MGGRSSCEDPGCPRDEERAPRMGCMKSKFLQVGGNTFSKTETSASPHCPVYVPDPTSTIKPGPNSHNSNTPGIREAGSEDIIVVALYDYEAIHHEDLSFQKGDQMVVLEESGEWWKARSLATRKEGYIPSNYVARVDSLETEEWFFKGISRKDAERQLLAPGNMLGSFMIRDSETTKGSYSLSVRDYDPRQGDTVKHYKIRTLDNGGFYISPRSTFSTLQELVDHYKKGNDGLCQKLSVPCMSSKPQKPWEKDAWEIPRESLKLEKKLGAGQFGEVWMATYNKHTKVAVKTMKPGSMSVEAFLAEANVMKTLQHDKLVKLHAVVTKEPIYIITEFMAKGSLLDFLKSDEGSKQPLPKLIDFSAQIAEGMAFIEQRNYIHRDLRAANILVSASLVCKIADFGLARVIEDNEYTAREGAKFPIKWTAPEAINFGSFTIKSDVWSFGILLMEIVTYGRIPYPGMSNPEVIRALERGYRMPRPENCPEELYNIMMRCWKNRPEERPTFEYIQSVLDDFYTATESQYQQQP

SMILES | IC50 [1] [nM] | IC50 [2] [nM] | IC50 [3] [nM] | AUC [4] [µM·h] | hepatic extraction ratio [5] | AUC (Mus musculus) [nmol·h/L] | IC50 (BaF3) [nM]
Cc1ccc(NC(=O)c2cc(CN3CCN(C)CC3)n(C(C)(C)C)n2)cc1Nc1nc2ccccc2n1-c1cc(N)ncn1 | 8 | 11 | 177 | – | – | – | –
Cc1cn(-c2cc(NC(=O)c3ccc(C)c(Nc4nc5ccccc5n4-c4cc(N)ncn4)c3)cc(C(F)(F)F)c2)cn1 | 238 | 904 | – | – | – | – | –
Cc1cccc(NC(=O)c2ccc(C)c(Nc3nc4ccccc4n3-c3cc(NCCCCN(C)C)ncn3)c2)c1 | 22 | > 2500 | – | – | – | – | –
CCN(CC)CCCCNc1cc(-n2c(Nc3cc(C(=O)Nc4cccc(C)c4)ccc3C)nc3ccccc32)ncn1 | 20 | 1810 | – | – | – | – | –
Cc1cccc(NC(=O)c2ccc(C)c(Nc3nc4ccccc4n3-c3cc(NCCN4CCN(C)CC4)ncn3)c2)c1 | 38 | > 2500 | – | – | – | – | –
Cc1cccc(NC(=O)c2ccc(C)c(Nc3nc4ccccc4n3-c3cc(NCCCN4CCN(C)CC4)ncn3)c2)c1 | 19 | 1870 | – | – | – | – | –
Cc1ccc(C(=O)Nc2cccc(C(F)(F)F)c2)cc1Nc1nc2ccccc2n1-c1cc(NCCCCN(C)C)ncn1 | 15 | 56 | 485 | – | – | – | –
CCN(CC)CCCCNc1cc(-n2c(Nc3cc(C(=O)Nc4cccc(C(F)(F)F)c4)ccc3C)nc3ccccc32)ncn1 | 18 | 475 | 274 | – | – | – | –
Cc1ccc(C(=O)Nc2cccc(C(F)(F)F)c2)cc1Nc1nc2ccccc2n1-c1cc(NCCN2CCN(C)CC2)ncn1 | 11 | 130 | 458 | – | – | – | –
Cc1ccc(C(=O)Nc2cccc(C(F)(F)F)c2)cc1Nc1nc2ccccc2n1-c1cc(NCCCN2CCN(C)CC2)ncn1 | 18 | 260 | 494 | – | – | – | –
Cc1ccc(C(=O)Nc2cccc(C(F)(F)F)c2)cc1Nc1nc2ccccc2n1-c1cc(NCCC#N)ncn1 | 1370 | > 2500 | – | – | – | – | –
Cc1ccc(C(=O)Nc2cccc(C(F)(F)F)c2)cc1Nc1nc2ccccc2n1-c1ncnc(NCCCN2CCN(C)CC2)n1 | 12 | 54 | – | – | – | – | –
Cc1ccc(NC(=O)c2cc(OC3CCN(C)CC3)cc(C(F)(F)F)c2)cc1Nc1nc2ccccc2n1-c1cc(N)ncn1 | 24 | 27 | 233 | – | – | – | –
CCN1CCN(Cc2ccc(C(=O)Nc3ccc(C)c(Nc4nc5ccccc5n4-c4cc(N)ncn4)c3)cc2Cl)CC1 | 4 | 9 | 32 | – | – | – | –
Cc1ccc(NC(=O)c2cc(N3CCN(C)CC3)cc(C(F)(F)F)c2)cc1Nc1nc2ccccc2n1-c1cc(N)ncn1 | 11 | 20 | 130 | – | – | – | –
CCN1CCN(c2cc(C(=O)Nc3ccc(C)c(Nc4nc5ccccc5n4-c4cc(N)ncn4)c3)cc(C(F)(F)F)c2)CC1 | 11 | 16 | 71 | – | – | – | –
Cc1ccc(NC(=O)c2cccc(C(F)(F)F)c2)cc1Nc1nc2ccccc2n1-c1cc(NCCCN)ncn1 | 23 | 1960 | – | – | – | – | –
Cc1ccc(NC(=O)c2cccc(C(F)(F)F)c2)cc1Nc1nc2ccccc2n1-c1cc(NCCCCN)ncn1 | 13 | 345 | – | – | – | – | –
CCN(CC)CCNc1cc(-n2c(Nc3cc(NC(=O)c4cccc(C(F)(F)F)c4)ccc3C)nc3ccccc32)ncn1 | 111 | 378 | > 2500 | – | – | – | –

SMILES | IC50 [1] [nM] | IC50 [2] [nM] | IC50 [3] [nM] | AUC [4] [µM·h] | hepatic extraction ratio [5] | AUC (Mus musculus) [nmol·h/L] | IC50 (BaF3) [nM]
Cc1ccc(NC(=O)c2cccc(C(F)(F)F)c2)cc1Nc1nc2ccccc2n1-c1cc(NCCCCN(C)C)ncn1 | 5 | 65 | 139 | – | – | – | –
CCN(CC)CCCCNc1cc(-n2c(Nc3cc(NC(=O)c4cccc(C(F)(F)F)c4)ccc3C)nc3ccccc32)ncn1 | 12 | 430 | 97 | 0.368 | < 0.3 | – | –
Cc1ccc(NC(=O)c2cccc(C(F)(F)F)c2)cc1Nc1nc2ccccc2n1-c1cc(NCCCC2COCCN2)ncn1 (stereo not drawn) | 26 | 49 | 165 | – | – | – | –
Cc1ccc(NC(=O)c2cccc(C(F)(F)F)c2)cc1Nc1nc2ccccc2n1-c1cc(NCCC2CCCN2)ncn1 (stereo not drawn) | 38 | 805 | > 2500 | – | – | – | –
Cc1ccc(NC(=O)c2cccc(C(F)(F)F)c2)cc1Nc1nc2ccccc2n1-c1cc(N[C@H]2CC[C@H](N)CC2)ncn1 | 71 | 450 | 1720 | – | 0.383 | – | –
Cc1ccc(NC(=O)c2cccc(C(F)(F)F)c2)cc1Nc1nc2ccccc2n1-c1cc(NC2CCN(C)CC2)ncn1 | 168 | > 2500 | > 2500 | – | – | – | –
Cc1ccc(NC(=O)c2cccc(C(F)(F)F)c2)cc1Nc1nc2ccccc2n1-c1cc(NCCc2ccccn2)ncn1 | 204 | 917 | 2370 | – | – | – | –
Cc1ccc(NC(=O)c2cccc(C(F)(F)F)c2)cc1Nc1nc2ccccc2n1-c1cc(N2CCOCC2)ncn1 | > 2500 | > 2500 | > 2500 | – | – | – | –
Cc1ccc(NC(=O)c2cccc(C(F)(F)F)c2)cc1Nc1nc2ccccc2n1-c1cc(NCCN2CCN(C)CC2)ncn1 | 29 | 69 | 305 | – | – | – | –
Cc1ccc(NC(=O)c2cccc(C(F)(F)F)c2)cc1Nc1nc2ccccc2n1-c1cc(NCCCN2CCN(C)CC2)ncn1 | 6 | 31 | 128 | – | – | – | –
COCCNc1cc(-n2c(Nc3cc(NC(=O)c4cccc(C(F)(F)F)c4)ccc3C)nc3ccccc32)ncn1 | 135 | 405 | 1690 | – | – | 2687 | –
Cc1ccc(C(=O)Nc2ccccc2)cc1Nc1nc2ccccc2n1-c1cc(N)ncn1 | 1080 | > 2500 | – | – | – | – | –
Cc1ccc(NC(=O)c2cccc(Cl)c2)cc1Nc1nc2ccccc2n1-c1cc(N)ncn1 | 132 | 475 | 1650 | – | – | – | –
Cc1cc(NC(=O)c2ccc(C)c(Nc3nc4ccccc4n3-c3cc(N)ncn3)c2)ccn1 | 177 | > 2500 | – | – | – | – | –
Cc1ccc(NC(=O)c2cccc(C(F)(F)F)c2)cc1Nc1nc2ccccc2n1-c1cc(N)ncn1 | 11 | 43 | 450 | – | – | – | –
Cc1ccc(NC(=O)c2cc(Cl)cc(Cl)c2)cc1Nc1nc2ccccc2n1-c1cc(N)ncn1 | 58 | 121 | 530 | – | – | – | –
Cc1ccc(C(=O)Nc2cccc(C(F)(F)F)c2)cc1Nc1nc2ccccc2n1-c1ncnc(N)c1C | 2400 | > 2500 | > 2500 | – | – | – | –
Cc1cccc(C(=O)Nc2ccc(C)c(Nc3nc4ccccc4n3-c3cc(N)ncn3)c2)c1 | 70 | 245 | 1540 | – | – | – | –
Cc1ccc(NC(=O)c2ccncc2C(C)(C)C)cc1Nc1nc2ccccc2n1-c1cc(N)ncn1 | – | 46 | – | – | – | – | –

SMILES | IC50 [1] [nM] | IC50 [2] [nM] | IC50 [3] [nM] | AUC [4] [µM·h] | hepatic extraction ratio [5] | AUC (Mus musculus) [nmol·h/L] | IC50 (BaF3) [nM]
Cc1ccc(C(=O)Nc2cccc(C(N)=O)c2)cc1Nc1nc2ccccc2n1-c1cc(N)ncn1 | > 2500 | > 2500 | – | – | – | – | –
COc1cccc(NC(=O)c2ccc(C)c(Nc3nc4ccccc4n3-c3cc(N)ncn3)c2)c1 | 90 | > 2500 | – | – | – | – | –
Cc1ccc(C(=O)Nc2cccc3cnccc23)cc1Nc1nc2ccccc2n1-c1cc(N)ncn1 | 616 | > 2500 | – | – | – | – | –
Cc1ccc(NC(=O)c2ccncc2Cl)cc1Nc1nc2ccccc2n1-c1cc(N)ncn1 | 715 | > 2500 | – | – | – | – | –
Cc1ccc(NC(=O)c2ccc(C(C)(C)C)s2)cc1Nc1nc2ccccc2n1-c1cc(N)ncn1 | 43 | 84 | 916 | – | – | – | 6
Cc1ccc(NC(=O)c2cc(C3CC3)n[nH]2)cc1Nc1nc2ccccc2n1-c1cc(N)ncn1 | 120 | 446 | 7360 | – | – | – | –
Cc1cccc(NC(=O)c2ccc(C)c(Nc3nc4ccccc4n3-c3cc(N)ncn3)c2)c1 | 52 | > 2500 | – | – | – | – | –
Cc1ccc(C(=O)Nc2cccc(C(C)C)c2)cc1Nc1nc2ccccc2n1-c1cc(N)ncn1 | 30 | 151 | – | – | – | – | –
Cc1ccc(C(=O)Nc2cccc(C(C)(C)C)c2)cc1Nc1nc2ccccc2n1-c1cc(N)ncn1 | 22 | 139 | – | – | – | – | –
COc1cc(-n2c(Nc3cc(NC(=O)c4cccc(C(F)(F)F)c4)ccc3C)nc3ccccc32)ncn1 | 2030 | > 2500 | > 2500 | – | – | – | –
Cc1ccc(C(=O)Nc2cccc(C(F)(F)F)c2)cc1Nc1nc2ccccc2n1-c1cc(N)ncn1 | 59 | > 2500 | – | – | – | – | –
Cc1ccc(NC(=O)c2cccc(C(F)(F)F)c2)cc1Nc1nc2ccccc2n1-c1cc(NCCN)ncn1 | 230 | > 2500 | – | – | – | – | –
Cc1ccc(NC(=O)c2cccc(C(F)(F)F)c2)cc1Nc1nc2ccccc2n1-c1cc(NCCO)ncn1 | 27 | 192 | 1920 | – | – | – | –
Cc1ccc(C(=O)Nc2cccc(Cl)c2)cc1Nc1nc2ccccc2n1-c1cc(N)ncn1 | 63 | > 2500 | – | – | – | – | –
Cc1ccc(C(=O)Nc2cccc(OC(F)F)c2)cc1Nc1nc2ccccc2n1-c1cc(N)ncn1 | 17 | > 2500 | – | – | – | – | –
Cc1ccc(C(=O)Nc2cccc(Br)c2)cc1Nc1nc2ccccc2n1-c1cc(N)ncn1 | 43 | > 2500 | – | – | – | – | –
Cc1ccc(NC(=O)c2cc(C(C)(C)C)nn2C)cc1Nc1nc2ccccc2n1-c1cc(N)ncn1 | 316 | 844 | 7190 | – | – | – | –
Cc1ccc(NC(=O)c2cccc(C(F)(F)F)c2)cc1Nc1nc2ccccc2n1-c1cc(Cl)ncn1 | 1160 | 3830 | 16500 | – | – | – | –
